Literature values, collected in patent publication US20140271816A1, “TREATMENT OF POTENTIAL PLATELET AGGREGATION WITH LIPOSOMALLY FORMULATED GLUTATHIONE AND CLOPIDOGREL” (priority 2013, published 2014).
Like-named read-outs stand apart in the source and are kept apart here.

Legend:
[1] = oral, 75 mg clopidogrel (base)
[2] = rat; for toxin remaining: Co-60 in liver
[3] = humans, plain non-formulated glutathione

## COC(=O)[C@H](c1ccccc1Cl)N1CCc2sccc2C1 [Clopidogrel, clopidogrel]
[1]
  peak plasma levels of the main circulating metabolite: approx. 3 mg/L
[1]; main circulating metabolite
  time of peak plasma levels after dosing: approximately one

## CC(=O)N[C@@H](CS)C(=O)O [NAC, N-Acetyl cysteine]
Percent of the activity of GSH
  activity in forming the AM relative to GSH: less than 10%

## N[C@@H](CCC(=O)N[C@@H](CS)C(=O)NCC(=O)O)C(=O)O [Plain glutathione, reduced glutathione]
Ex vivo studies
  rank as reducing agent needed to form the active metabolites of clopidogrel: best reducing agent
[2]; intravenous administration
  toxin remaining: 36%
  removal of toxin / radiotagged marker (Co-60) from the liver: 64%
[2]; oral administration
  toxin remaining: 100%
  removal of toxin / radiotagged marker (Co-60) from the liver: 0%
[2]; oral administration, listed as plain GSH
  removal of toxin / radiotagged marker (Co-60) from the liver: no function
[3]; listed as glutathione
  absorption after oral administration: not absorbed well
[3]; listed as plain GSH
  absorption after oral administration: not absorbed
[3]; listed as plain glutathione
  absorption after oral administration: not absorbed
